Assay results from paper PMC8674921 (ACS Omega, 2021).

Tests used:
BACE 1 = details: read-out: IC50 BACE 1; cited from earlier work
BChE = details: read-out: IC50 BChE; cited from earlier work
[1] = biological target: T1, h5-HT1A receptor (Ba/F3-5-HT1AR cells) (Homo sapiens, UniProt P08908); assay: Functional GPCR assay, intracellular calcium mobilization, h5-HT1A
T1 sequence (P08908 1-422): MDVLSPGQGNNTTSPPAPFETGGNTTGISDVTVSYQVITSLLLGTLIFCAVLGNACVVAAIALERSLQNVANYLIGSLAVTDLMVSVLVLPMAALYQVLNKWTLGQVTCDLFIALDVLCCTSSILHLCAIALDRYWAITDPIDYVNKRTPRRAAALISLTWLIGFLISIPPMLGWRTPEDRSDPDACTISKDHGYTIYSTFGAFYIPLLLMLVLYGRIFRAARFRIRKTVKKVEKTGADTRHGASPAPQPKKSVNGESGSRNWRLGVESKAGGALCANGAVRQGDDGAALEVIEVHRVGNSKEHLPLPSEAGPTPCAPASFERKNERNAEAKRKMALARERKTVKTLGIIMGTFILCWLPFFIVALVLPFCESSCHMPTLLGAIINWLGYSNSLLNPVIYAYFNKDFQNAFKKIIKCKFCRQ

[2] = biological target: hD1 receptor (CHO-D1R cells) (Homo sapiens, UniProt P21728); assay: Functional GPCR assay, cAMP level; type: cell-based
hD1 receptor (CHO-D1R cells), sequence (P21728 whole entry): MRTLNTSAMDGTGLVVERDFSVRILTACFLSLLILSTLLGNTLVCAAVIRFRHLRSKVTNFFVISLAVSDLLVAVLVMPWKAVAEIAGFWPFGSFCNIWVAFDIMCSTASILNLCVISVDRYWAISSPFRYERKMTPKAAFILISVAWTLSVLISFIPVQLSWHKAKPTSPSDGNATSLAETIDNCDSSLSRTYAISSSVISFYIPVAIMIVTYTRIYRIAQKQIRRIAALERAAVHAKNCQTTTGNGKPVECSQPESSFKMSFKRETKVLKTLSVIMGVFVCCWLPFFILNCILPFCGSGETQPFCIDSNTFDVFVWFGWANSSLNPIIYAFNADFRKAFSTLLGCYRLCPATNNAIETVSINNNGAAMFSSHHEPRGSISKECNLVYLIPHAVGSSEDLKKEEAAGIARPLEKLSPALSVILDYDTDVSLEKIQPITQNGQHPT

[3] = biological target: human V1AR (recombinant CHO-V1AR membrane homogenates) (Homo sapiens, UniProt P37288); assay: Agonist radioligand binding assay, vasopressin V1A receptor; details: read-out: % inhibition of control-specific binding
human V1AR (recombinant CHO-V1AR membrane homogenates), sequence (P37288 whole entry): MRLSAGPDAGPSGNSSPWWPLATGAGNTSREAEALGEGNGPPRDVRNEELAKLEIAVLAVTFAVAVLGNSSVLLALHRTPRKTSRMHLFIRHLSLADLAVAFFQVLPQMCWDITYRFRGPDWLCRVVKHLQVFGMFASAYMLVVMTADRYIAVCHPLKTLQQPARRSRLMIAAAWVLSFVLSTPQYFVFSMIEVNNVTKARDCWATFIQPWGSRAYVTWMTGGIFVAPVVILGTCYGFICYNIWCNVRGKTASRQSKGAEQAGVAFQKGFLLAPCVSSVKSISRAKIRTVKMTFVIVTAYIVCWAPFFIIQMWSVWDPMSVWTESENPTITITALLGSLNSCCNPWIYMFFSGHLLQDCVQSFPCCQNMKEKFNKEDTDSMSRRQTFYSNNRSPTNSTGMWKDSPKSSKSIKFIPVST

[4] = biological target: T2, human D4R (CHO-D4R membrane homogenates) (Homo sapiens, UniProt P21917); assay: Antagonist radioligand binding assay, D4 receptor; details: 50 μM kurarinone, [3H]methylspiperone, mean of duplicate
T2 sequence (P21917 1-419): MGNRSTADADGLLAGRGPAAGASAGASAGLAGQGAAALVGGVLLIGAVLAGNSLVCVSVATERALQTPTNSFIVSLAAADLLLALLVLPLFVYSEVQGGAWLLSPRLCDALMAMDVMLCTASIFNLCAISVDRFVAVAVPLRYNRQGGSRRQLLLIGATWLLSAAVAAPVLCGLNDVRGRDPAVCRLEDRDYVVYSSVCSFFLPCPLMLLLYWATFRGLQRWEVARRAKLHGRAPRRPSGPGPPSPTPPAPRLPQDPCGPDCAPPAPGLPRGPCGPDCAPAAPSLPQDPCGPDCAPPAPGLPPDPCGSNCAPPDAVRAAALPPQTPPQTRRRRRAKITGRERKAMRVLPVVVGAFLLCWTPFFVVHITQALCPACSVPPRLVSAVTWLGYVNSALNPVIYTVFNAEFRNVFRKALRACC

recombinant hMAO-B = biological target: T3, recombinant hMAO-B (Homo sapiens, UniProt P27338); assay: hMAO-B inhibitory assay; type: biochemical
T3 sequence (P27338 1-520): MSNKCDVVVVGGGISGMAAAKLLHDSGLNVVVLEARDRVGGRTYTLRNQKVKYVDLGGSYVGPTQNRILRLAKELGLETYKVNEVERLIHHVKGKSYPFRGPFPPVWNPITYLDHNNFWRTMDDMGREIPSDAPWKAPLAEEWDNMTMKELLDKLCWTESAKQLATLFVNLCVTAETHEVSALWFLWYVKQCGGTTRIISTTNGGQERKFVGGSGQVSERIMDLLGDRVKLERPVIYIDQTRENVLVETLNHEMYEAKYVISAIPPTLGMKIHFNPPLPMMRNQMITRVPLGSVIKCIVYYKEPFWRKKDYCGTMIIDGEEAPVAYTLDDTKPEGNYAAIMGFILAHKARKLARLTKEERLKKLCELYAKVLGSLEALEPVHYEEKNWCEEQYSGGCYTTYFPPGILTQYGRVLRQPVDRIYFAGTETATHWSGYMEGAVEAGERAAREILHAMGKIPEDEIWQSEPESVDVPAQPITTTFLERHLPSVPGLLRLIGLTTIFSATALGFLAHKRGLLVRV

[5] = biological target: hD2L receptor (CHO-D2LR cells) (Homo sapiens, UniProt P14416); assay: Functional GPCR assay, intracellular calcium flux, hD2L; type: cell-based
hD2L receptor (CHO-D2LR cells), sequence (P14416 whole entry): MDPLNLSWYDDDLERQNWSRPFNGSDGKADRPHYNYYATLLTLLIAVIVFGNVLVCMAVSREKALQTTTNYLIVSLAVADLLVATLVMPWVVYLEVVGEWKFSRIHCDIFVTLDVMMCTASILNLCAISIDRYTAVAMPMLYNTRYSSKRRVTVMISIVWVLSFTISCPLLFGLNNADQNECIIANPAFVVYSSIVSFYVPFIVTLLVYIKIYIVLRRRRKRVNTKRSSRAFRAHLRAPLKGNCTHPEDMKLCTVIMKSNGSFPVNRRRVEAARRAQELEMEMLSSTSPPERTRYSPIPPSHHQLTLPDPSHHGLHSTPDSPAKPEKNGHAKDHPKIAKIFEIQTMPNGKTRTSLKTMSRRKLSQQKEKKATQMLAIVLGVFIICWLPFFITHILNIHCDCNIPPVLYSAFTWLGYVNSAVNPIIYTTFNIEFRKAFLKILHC

[6] = biological target: T4, hD4 receptor (CHO-D4R cells) (Homo sapiens, UniProt P21917); assay: Functional GPCR assay, cAMP level; type: cell-based
T4 sequence (P21917 1-419): T2 sequence (P21917 1-419)

recombinant hMAO-A = biological target: T5, recombinant hMAO-A (Homo sapiens, UniProt P21397); assay: hMAO-A inhibitory assay; type: biochemical
T5 sequence (P21397 1-527): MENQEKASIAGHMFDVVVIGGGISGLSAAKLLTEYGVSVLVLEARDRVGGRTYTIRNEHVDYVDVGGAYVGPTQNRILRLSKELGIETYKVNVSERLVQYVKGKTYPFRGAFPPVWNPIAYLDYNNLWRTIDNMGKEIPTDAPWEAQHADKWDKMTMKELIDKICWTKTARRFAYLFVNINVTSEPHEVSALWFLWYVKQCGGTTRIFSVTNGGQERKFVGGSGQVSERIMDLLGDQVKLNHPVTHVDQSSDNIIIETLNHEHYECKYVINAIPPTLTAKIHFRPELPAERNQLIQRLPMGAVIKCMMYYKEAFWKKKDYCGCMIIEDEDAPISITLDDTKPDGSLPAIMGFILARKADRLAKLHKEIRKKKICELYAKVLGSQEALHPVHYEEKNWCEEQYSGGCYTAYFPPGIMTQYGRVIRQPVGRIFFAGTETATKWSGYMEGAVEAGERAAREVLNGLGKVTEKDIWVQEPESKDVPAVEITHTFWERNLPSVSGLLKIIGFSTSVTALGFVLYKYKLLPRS

[7] = biological target: human D1R (recombinant CHO-D1R membrane homogenates) (Homo sapiens, UniProt P21728); assay: Antagonist radioligand binding assay, D1 receptor; details: 50 μM kurarinone, [3H]SCH-23390, mean of duplicate
human D1R (recombinant CHO-D1R membrane homogenates), sequence (P21728 whole entry): as the sequence (P21728 whole entry) above

AChE = details: read-out: IC50 AChE; cited from earlier work
[8] = biological target: human D3R (CHO-D3R membrane homogenates) (Homo sapiens, UniProt P35462); assay: Antagonist radioligand binding assay, D3 receptor; details: read-out: % inhibition of control-specific binding
human D3R (CHO-D3R membrane homogenates), sequence (P35462 whole entry): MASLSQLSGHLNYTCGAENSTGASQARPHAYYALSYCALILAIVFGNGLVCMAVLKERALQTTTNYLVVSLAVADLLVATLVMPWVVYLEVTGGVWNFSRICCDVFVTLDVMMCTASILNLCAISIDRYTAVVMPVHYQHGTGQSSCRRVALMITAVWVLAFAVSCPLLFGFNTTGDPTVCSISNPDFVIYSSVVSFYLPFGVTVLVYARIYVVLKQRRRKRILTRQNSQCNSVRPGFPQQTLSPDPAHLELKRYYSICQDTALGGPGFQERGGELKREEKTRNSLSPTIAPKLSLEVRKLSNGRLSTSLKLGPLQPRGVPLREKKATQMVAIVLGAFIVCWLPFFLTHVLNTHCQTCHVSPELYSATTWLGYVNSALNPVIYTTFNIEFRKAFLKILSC

GABAA receptors = details: read-out: EC50 GABAA receptors modulating effect; cited from earlier work
[9] = biological target: human D2LR (transfected HEK-293 membrane homogenates) (Homo sapiens, UniProt P14416); assay: Antagonist radioligand binding assay, D2L receptor; details: 50 μM kurarinone, [3H]methylspiperone, mean of duplicate
human D2LR (transfected HEK-293 membrane homogenates), sequence (P14416 whole entry): as the sequence (P14416 whole entry) above

hMAO-A = details: read-out: IC50 hMAO-A; selective hMAO-A inhibition; cited from earlier work
[10] = read-out: % inhibition of control agonist effect

Question: Which results are given for `C=C(C)[C@H](CC=C(C)C)Cc1c(O)cc(OC)c2c1O[C@H](c1ccc(O)cc1O)CC2=O` [kurarinone]?
Answer: IC50 (BACE 1): 24.5 ± 1.73 µM; IC50 (BChE): 5.29 ± 0.67 µM; % stimulation of control agonist effect ([1]; 100 μM, h5-HT1A, agonist mode, control 0.625 μM 5-HT): 17.8 ± 1.13%; inhibition at 100 µM [1, 10]: 30.3%; % stimulation of control agonist effect ([2]; 100 μM, hD1, agonist mode, control 10 μM DA): 0.25 ± 0.64%; inhibition at 100 µM [2, 10]: 98.5%; inhibition at 50 µM [3]: 47.6%; % inhibition of control-specific binding [4]: 71.1%; IC50 (recombinant hMAO-B): 198 ± 12.7 µM; Inhibition type hMAO-B (recombinant hMAO-B; Lineweaver-Burk plots): mixed; agonist response in antagonist mode assay ([5]; 100 μM, D2LR, antagonist mode): at least 25%; % stimulation of control agonist effect ([5]; 100 μM, hD2L, agonist mode, control 10 μM DA): 113 ± 28.9%; agonist or agonist-like effect flag in antagonist mode ([5]; 100 μM, hD2L, antagonist mode): AGO (the test compound induced at least 25% agonist or agonist-like effect at this concentration); EC50 ([5]; EC50 (50% of control agonist effect), hD2L, agonist mode, mean ± S.D., duplicate): 22.4 ± 3.46 µM; inhibition at 100 µM [5, 10]: 43.8%; EC50 [6]: 71.3 ± 4.94 µM; % stimulation of control agonist effect ([6]; 100 μM, hD4, agonist mode, control 1000 nm DA): 71.7 ± 6.36%; inhibition at 100 µM [6, 10]: -4.2%; IC50 (recombinant hMAO-A): 186 ± 6.17 µM; Ki (recombinant hMAO-A; Ki hMAO-A, Dixon and secondary plots): 65.1 ± 3.53 µM; Inhibition type hMAO-A (recombinant hMAO-A; Lineweaver-Burk plots): competitive; % inhibition of control-specific binding [7]: > 70%; % inhibition of control-specific binding ([7]; listed as Kurarinone): 99.1%; IC50 (AChE): 74.3 ± 7.85 µM; inhibition at 50 µM [8]: 49.2%; EC50 (GABAA receptors): 8.1 ± 1.4 µM; % inhibition of control-specific binding [9]: 78.5%

Question: For `C=C(C)[C@H](CC=C(C)C)Cc1c(O)cc(O)c2c1O[C@H](c1ccc(O)cc1O)CC2=O` [sophoraflavone G], which IC50 (hMAO-A) is on record?
Answer: 38.8 ± 1.1 µM
